In US10174044B2, “Fused pyridines as kinase inhibitors” (BRISTOL-MYERS SQUIBB COMPANY, priority 2015, dated 2019):

Target: GST-Xa-hAAK1 (Homo sapiens (Human), UniProt Q2M2I8)
Assay: AAK1 Kinase Assay
Assay type: biochemical
Conditions: bacterially expressed GST-Xa-hAAK1 3.5 nM; ATP 22 μM; fluoresceinated peptide substrate 1.5 μM; 3 hours at room temperature
Description: The assays were performed in U-bottom 384-well plates. […] The reactions were initiated by the combination of bacterially expressed, GST-Xa-hAAK1 with substrates and test compounds. The reactions were incubated at room temperature for 3 hours and terminated by adding 60 μl of 35 mM EDTA buffer to each sample. The reactions were analyzed on the Caliper LabChip 3000 (Caliper, Hopkinton, Mass.) by electrophoretic separation of the fluorescent substrate and phosphorylated product. […] Compounds were dissolved at 10 mM in dimethylsulfoxide (DMSO) and evaluated at eleven concentrations. IC50 values were derived by non-linear regression analysis.

Chain of GST-Xa-hAAK1 (Q2M2I8 whole entry): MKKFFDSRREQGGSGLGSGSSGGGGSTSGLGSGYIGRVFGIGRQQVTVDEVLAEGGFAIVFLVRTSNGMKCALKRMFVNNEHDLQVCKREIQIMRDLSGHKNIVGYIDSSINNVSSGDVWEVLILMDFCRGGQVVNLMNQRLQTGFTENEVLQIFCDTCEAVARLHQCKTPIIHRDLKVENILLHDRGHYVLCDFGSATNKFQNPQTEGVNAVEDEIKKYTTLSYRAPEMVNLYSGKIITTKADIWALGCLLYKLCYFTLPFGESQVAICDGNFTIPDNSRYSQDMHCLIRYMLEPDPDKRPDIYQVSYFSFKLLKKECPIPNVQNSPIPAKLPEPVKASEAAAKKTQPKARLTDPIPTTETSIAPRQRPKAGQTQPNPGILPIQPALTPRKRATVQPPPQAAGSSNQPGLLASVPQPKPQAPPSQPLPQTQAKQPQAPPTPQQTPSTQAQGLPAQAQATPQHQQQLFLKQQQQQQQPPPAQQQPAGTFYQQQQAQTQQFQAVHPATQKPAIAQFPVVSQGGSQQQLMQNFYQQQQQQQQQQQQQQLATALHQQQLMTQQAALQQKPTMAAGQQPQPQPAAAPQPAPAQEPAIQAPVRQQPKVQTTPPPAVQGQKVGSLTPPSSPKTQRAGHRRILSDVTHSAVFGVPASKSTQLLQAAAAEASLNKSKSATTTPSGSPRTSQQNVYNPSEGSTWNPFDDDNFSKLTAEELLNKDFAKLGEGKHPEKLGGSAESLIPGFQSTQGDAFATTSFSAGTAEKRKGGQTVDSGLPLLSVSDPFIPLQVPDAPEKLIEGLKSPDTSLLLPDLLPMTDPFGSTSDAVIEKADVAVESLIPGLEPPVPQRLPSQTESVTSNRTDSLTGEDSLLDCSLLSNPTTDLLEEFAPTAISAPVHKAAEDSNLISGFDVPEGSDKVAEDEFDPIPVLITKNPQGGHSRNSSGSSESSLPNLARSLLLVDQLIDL

| Compound | IC50 [nM] |
| --- | --- |
| COC(=O)Nc1cc2c(cn1)OCc1cc(OC[C@@](C)(N)CC(C)C)c(F)cc1-2 [Example 49, (S)-methyl (8-((2-amino-2,4-dimethylpentyl)oxy)-9-fluoro-6H-isochromeno[3,4-c]pyridin-2-yl)carbamate] | 5.4 |
| Cc1cc2c(cc1OC[C@@H](N)CC(C)C)c(=O)n(C)c1cnccc21 [Example 3, (S)-8-((2-amino-4-methylpentyl)oxy)-5,9-dimethylbenzo[c][1,7]naphthyridin-6(5H)-one] | 3.2 |
| CC(C)C[C@H](N)COc1ccc2c(c1)C(C)(C)Oc1cnccc1-2 [Example 31, (S)-1-((6,6-dimethyl-6H-isochromeno[3,4-c]pyridin-8-yl)oxy)-4-methylpentan-2-amine] | 235 |
| CC(C)C[C@](C)(N)COc1ccc2c(c1)COc1cnc(NCC(F)(F)F)cc1-2 [Example 43, (S)-8-((2-amino-2,4-dimethylpentyl)oxy)-N-(2,2,2-trifluoroethyl)-6H-isochromeno[3,4-c]pyridin-2-amine] | 56 |
| COC(=O)Nc1nccc2c1OCc1cc(OC[C@@](C)(N)CC(C)C)ccc1-2 [Example 64, (S)-methyl (8-((2-amino-2,4-dimethylpentyl)oxy)-6H-isochromeno[3,4-c]pyridin-4-yl)carbamate] | 7.8 |
| CC(=O)Nc1cc2c(cn1)OCc1cc(OC[C@@H](N)CC(C)C)ccc1-2 [Example 33, (S)—N-(8-((2-amino-4-methylpentyl)oxy)-6H-isochromeno[3,4-c]pyridin-2-yl)acetamide] | 2.1 |
| CC(C)C[C@@](C)(N)COc1ccc2c(c1)COc1cnc(NCC(F)(F)F)cc1-2 [Example 44, (R)-8-((2-amino-2,4-dimethylpentyl)oxy)-N-(2,2,2-trifluoroethyl)-6H-isochromeno[3,4-c]pyridin-2-amine] | 181 |
| COC(=O)Nc1nc(Cl)c2c(c1Cl)-c1ccc(OC[C@@](C)(N)CC(C)C)c(Cl)c1CO2 [Example 63, (S)-methyl (8-((2-amino-2,4-dimethylpentyl)oxy)-1,4,7-trichloro-6H-isochromeno[3,4-c]pyridin-2-yl)carbamate] | 15 |
| CC(C)C[C@](C)(N)COc1ccc2c(c1)COc1cnc(C(F)F)cc1-2 [Example 48, (S)-1-((2-(difluoromethyl)-6H-isochromeno[3,4-c]pyridin-8-yl)oxy)-2,4-dimethylpentan-2-amine] | 13 |
| Cc1nccc2c3ccc(OC[C@@](C)(N)CC(C)C)cc3c(=O)n(CCO)c12 [Example 21, (S)-8-((2-amino-2,4-dimethylpentyl)oxy)-5-(2-hydroxyethyl)-4-methylbenzo[c][1,7]naphthyridin-6(5H)-one] | 1130 |
| CC(C)C[C@](C)(N)COc1ccc2c(c1)COc1c-2ccnc1Cl [Example 52, (S)-1-((4-chloro-6H-isochromeno[3,4-c]pyridin-8-yl)oxy)-2,4-dimethylpentan-2-amine] | 2.2 |
| CC(C)C[C@](C)(N)COc1ccc2c(c1)COc1cnc(F)cc1-2 [Example 57, (S)-1-((2-fluoro-6H-isochromeno[3,4-c]pyridin-8-yl)oxy)-2,4-dimethylpentan-2-amine] | 34 |
| CC(C)CC(C)(N)COc1ccc2c(c1)c(=O)[nH]c1cnccc12 (centres unmarked) [Example 8, 8-((2-amino-2,4-dimethylpentyl)oxy)benzo[c][1,7]naphthyridin-6(5H)-one] | 2.6 |
| Cc1nccc2c3cc(Cl)c(OC[C@@](C)(N)CC(C)C)cc3c(=O)n(C)c12 [Example 27, (S)-8-((2-amino-2,4-dimethylpentyl)oxy)-9-chloro-4,5-dimethylbenzo[c][1,7]naphthyridin-6(5H)-one] | 1.7 |
| Cc1nccc2c3ccc(OC[C@@](C)(N)CC(C)C)cc3c(=O)n(C)c12 [Example 10, (S)-8-((2-amino-2,4-dimethylpentyl)oxy)-4,5-dimethylbenzo[c][1,7]naphthyridin-6(5H)-one] | 35 |
| CC(=O)Nc1cc2c(cn1)OCc1cc(OCC(C)(N)CC(C)C)ccc1-2 (centres unmarked) [Example 36, N-(8-((2-amino-2,4-dimethylpentyl)oxy)-6H-isochromeno[3,4-c]pyridin-2-yl)acetamide] | 2.6 |
| CC(C)C[C@](C)(N)COc1ccc2c(c1)COc1c-2ccnc1N [Example 60, (S)-8-((2-amino-2,4-dimethylpentyl)oxy)-6H-isochromeno[3,4-c]pyridin-4-amine] | 0.74 |
| CC(C)C[C@H](N)COc1ccc2c(c1)c(=O)[nH]c1cnccc12 [Example 1, (S)-8-((2-amino-4-methylpentyl)oxy)benzo[c][1,7]naphthyridin-6(5H)-one] | 9.5 |
| CC(C)C[C@](C)(N)COc1ccc2c(c1)COc1cnc(NS(=O)(=O)C3CC3)cc1-2 [Example 56, (S)—N-(8-((2-amino-2,4-dimethylpentyl)oxy)-6H-isochromeno[3,4-c]pyridin-2-yl)cyclopropanesulfonamide] | 37 |
| Cc1cc2c3ccc(OC[C@@](C)(N)CC(C)C)c(C)c3c(=O)n(C)c2cn1 [Example 20, (S)-8-((2-amino-2,4-dimethylpentyl)oxy)-2,5,7-trimethylbenzo[c][1,7]naphthyridin-6(5H)-one] | 4.1 |
| COC(=O)Nc1cc2c(cn1)OCc1c-2ccc(OC[C@@](C)(N)CC(C)C)c1F [Example 45, (S)-methyl (8-((2-amino-2,4-dimethylpentyl)oxy)-7-fluoro-6H-isochromeno[3,4-c]pyridin-2-yl)carbamate] | 0.91 |
| [2H]C([2H])([2H])n1c(=O)c2cc(OC[C@@](C)(N)CC(C)C)c(Cl)cc2c2ccnc(C)c21 [Example 22, (S)-8-((2-amino-2,4-dimethylpentyl)oxy)-9-chloro-4-methyl-5-(trideuteromethyl)benzo[c][1,7]naphthyridin-6(5H)-one] | 3.2 |
| Cc1cc2c(cc1OC[C@@H](N)CC(C)C)c(=O)n(C)c1c(C)nccc21 [Example 4, (S)-8-((2-amino-4-methylpentyl)oxy)-4,5,9-trimethylbenzo[c][1,7]naphthyridin-6(5H)-one] | 14 |
| CC(=O)Nc1cc2c(cn1)OCc1cc(OC[C@](C)(N)CC(C)C)ccc1-2 [Example 38, (R)—N-(8-((2-amino-2,4-dimethylpentyl)oxy)-6H-isochromeno[3,4-c]pyridin-2-yl)acetamide] | 7.7 |
| CCOC(=O)Nc1cc2c(cn1)OCc1cc(OC[C@@](C)(N)CC(C)C)ccc1-2 [Example 41, (S)-ethyl (8-((2-amino-2,4-dimethylpentyl)oxy)-6H-isochromeno[3,4-c]pyridin-2-yl)carbamate] | 0.62 |
| CC(C)C[C@](C)(N)COc1ccc2c(c1)COc1cnc(N)cc1-2 [Example 53, (S)-8-((2-amino-2,4-dimethylpentyl)oxy)-6H-isochromeno[3,4-c]pyridin-2-amine] | 4.4 |
| CC(C)C[C@H](N)COc1ccc2c(c1)COc1cnccc1-2 [Example 29, (S)-1-((6H-isochromeno[3,4-c]pyridin-8-yl)oxy)-4-methylpentan-2-amine] | 13 |
| COC(=O)Nc1ncc2c(c1Cl)-c1cc(F)c(OC[C@@](C)(N)CC(C)C)cc1CO2 [Example 58, (S)-methyl (8-((2-amino-2,4-dimethylpentyl)oxy)-1-chloro-9-fluoro-6H-isochromeno[3,4-c]pyridin-2-yl)carbamate] | 18 |
| CC(C)C[C@H](N)COc1ccc2c(c1)C(C)Oc1cnccc1-2 (stereo partly drawn) [Example 30, (2S)-4-methyl-1-((6-methyl-6H-isochromeno[3,4-c]pyridin-8-yl)oxy)pentan-2-amine] | 17 |
